Drawing on paper PMC8390638, “Termitomenins F and G, Two New Lignan Glucosides from Terminalia chebula var. tomentella (Kurz) C. B. Clarke” (Natural Products and Bioprospecting, 2021), this text covers IC50 for four compounds.

The target in this test is α-glucosidase. The experiment in a line: α-glucosidase inhibitor screening assay (PNPG substrate, absorbance at 405 nm). It counts as biochemical. Particulars: means ± SD (n = 3), phosphate buffer pH 6.8, 37 °C, 1 h, Reed and Muench method, read-out: IC50 (one-half maximal inhibitory concentration to α-glucosidase). As to the method: The α-glucosidase inhibitor screening assay was conducted as reported previously and slightly modified. […] 4-Nitrophenol-α-D-glucopyranoside (PNPG) was used as an enzyme inhibitor screening model. α-glucosidase solution (0.025 U·mL^−1), PNPG (0.1 M), phosphate buffer (pH 6.8) and test samples (50 μM) were incubated in 96-well plates at 37 °C for 1 h. A microplate reader was recorded by the absorbance at 405 nm. No enzyme as the blank readings were subtracted from each well and compared to the control. In this assay, all reactions were performed in triplicate. The α-glucosidase inhibitory activity was presented as inhibition ratio. The formula to calculate the inhibition rate is as follows: inhibition rate (%) = (1 ‒ OD experimental 405 nm/OD […] 405 nm) × 100%, and IC50 values were calculated according to the Reed and Muench method.
As to `O=C(OC[C@H]1O[C@@H](OC(=O)c2cc(O)c(O)c(O)c2)[C@H](OC(=O)c2cc(O)c(O)c(O)c2)[C@@H](OC(=O)c2cc(O)c(O)c(O)c2)[C@@H]1OC(=O)c1cc(O)c(O)c(O)c1)c1cc(O)c(O)c(O)c1` [Compound 12, 1,2,3,4,6-penta-O-galloyl-β-D-glucopyranose], the IC50 was determined as 100 ± 10 nM.

On to `O=C1O[C@H]2[C@@H]3OC(=O)c4cc(O)c(O)c(O)c4-c4c(O)c(O)c5oc(=O)c6c(c(O)c(O)c7oc(=O)c4c5c76)-c4c(cc(O)c(O)c4O)C(=O)OC[C@H]3OC(O)[C@@H]2OC(=O)c2cc(O)c(O)c(O)c2-c2c1cc(O)c(O)c2O` (mixture of isomers) [Compound 10, punicalagin], for which the IC50 was found to be 270 ± 10 nM.

As for `O=C(O[C@@H]1O[C@@H]2COC(=O)c3cc(O)c(O)c(O)c3-c3c(cc(O)c(O)c3O)C(=O)O[C@H]([C@H]1O)[C@@H]2O)c1cc(O)c(O)c(O)c1` [Compound 13, corilagin], the IC50 stood at 3120 ± 230 nM.

Turning to `O=C(OC[C@H]1O[C@@H](OC(=O)c2cc(O)c(O)c(O)c2)[C@H](O)[C@@H](OC(=O)c2cc(O)c(O)c(O)c2)[C@@H]1O)c1cc(O)c(O)c(O)c1` [Compound 11, 1,3,6-tri-O-galloyl-β-D-glucopyranose], the IC50 worked out at 2280 ± 70 nM.
